Drawing on patent publication US10167297B2, “Substituted pyridine compounds having herbicidal activity” (BASF SE, priority 2014, dated 2019), this text covers pest or weed control, Herbicidal activity and plant injury for 8 compounds.

The structures appear in SMILES notation.

What all share (type): in vivo
In one assay the test system is Echinocloa crus-galli. The experiment in a line: greenhouse post-emergence herbicidal activity (use examples). Conditions: Echinochloa crus-galli, ECHCG, scale 0 to 100; for pest or weed control at 31 g/ha: 0.031 kg/ha; for pest or weed control at 250 g/ha: 0.25 kg/ha; for pest or weed control at 125 g/ha: 0.125 kg/ha. The text has this:
(§1) The seeds of the test plants were sown separately for each species. For the pre-emergence treatment, the active ingredients, which had been suspended or emulsified in water, were applied directly after sowing by means of finely distributing nozzles. The containers were irrigated gently to promote germination and growth and subsequently covered with transparent plastic hoods until the plants had rooted. This cover caused uniform germination of the test plants, unless this had been impaired by the active ingredients. For the post-emergence treatment, the test plants were first grown to a height of 3 to 15 cm, depending on the plant habit, and only then treated with the active ingredients which had been suspended or emulsified in water. For this purpose, the test plants were either sown directly and grown in the same containers, or they were first grown separately as seedlings and transplanted into the test containers a few days prior to treatment. Depending on the species, the plants were kept at 10-25° C. or 20-35° C., respectively. The test period extended over 2 to 4 weeks. During this time, the plants were tended, and their response to the individual treatments was evaluated. Evaluation was carried out using a scale from 0 to 100. 100 means no emergence of the plants, or complete destruction of at least the aerial moieties, and 0 means no damage, or normal course of growth. A good herbicidal activity is given at values of at least 70 and a very good herbicidal activity is given at values of at least 85. The plants used in the greenhouse experiments were of the following species: [table]

In another assay the test system is Chenopodium album. The assay is described as above. Conditions: CHEAL, scale 0 to 100.
Source text: as §1

For another assay, the system named is Setaria viridis. The assay is described as above. Conditions: SETVI, scale 0 to 100.
Source text: as §1

The subject of another assay is Zea mays. Put plainly: greenhouse post-emergence herbicidal activity on crop plant corn (use examples). Conditions: ZEAMX (corn, crop plant), scale 0 to 100; for plant injury at 31 g/ha: 0.031 kg/ha; for plant injury at 250 g/ha: 0.25 kg/ha; for plant injury at 125 g/ha: 0.125 kg/ha.
Source text: as §1

The test system of a further assay is Amaranthus retroflexus. Put plainly: greenhouse post-emergence herbicidal activity (use examples). Conditions: AMARE, scale 0 to 100.
Source text: as §1

In the case of `CC(=O)N(C)c1c(Cl)ccc(C2=C(OC(=O)C(C)(C)C)c3ncc(F)cc3CS2(=O)=O)c1Cl` [Compound I-12, [7-[3-[acetyl(methyl)amino]-2,4-dichloro-phenyl]-3-fluoro-6,6-dioxo-5H-thiopyrano[4,3-b]pyridin-8-yl] 2,2-dimethylpropanoate], the pest or weed control at 31 g/ha in the assay on Echinocloa crus-galli came out at 85%. Moreover, the Herbicidal activity with Chenopodium album (0.031 kg/ha) came to 90; in the assay with Setaria viridis (0.031 kg/ha) it was 75. Also, in the assay on Zea mays, the plant injury at 31 g/ha came to 15%.

The compound `CC(=O)N(C)c1c(Cl)ccc(C2=C(OC(=O)C(C)(C)C)c3ncccc3CS2(=O)=O)c1Cl` [Compound I-7, [7-[3-[acetyl(methyl)amino]-2,4-dichloro-phenyl]-6,6-dioxo-5H-thiopyrano[4,3-b]pyridin-8-yl] 2,2-dimethylpropanoate] came in with a pest or weed control at 250 g/ha with Echinocloa crus-galli of 98%. Moreover, the figures for the Herbicidal activity with Chenopodium album (0.25 kg/ha) and in the assay on Amaranthus retroflexus (0.25 kg/ha) were 100 and 95, respectively. Moreover, the plant injury at 250 g/ha with Zea mays is 20%.

For `CC(=O)N(C)c1c(Cl)ccc(C2=C(O)c3ncc(F)cc3CS2(=O)=O)c1Cl` [Compound I-11, N-[2,6-dichloro-3-(3-fluoro-8-hydroxy-6,6-dioxo-5H-thiopyrano[4,3-b]pyridin-7-yl)phenyl]-N-methyl-acetamide], in the assay on Echinocloa crus-galli, the pest or weed control at 31 g/ha is 90%. The Herbicidal activity with Chenopodium album (0.031 kg/ha) and in the assay with Setaria viridis (0.031 kg/ha) was 90 in each case. This compound displayed a plant injury at 31 g/ha in the assay on Zea mays of 15%.

Consider `CC(=O)N(C)c1c(Cl)ccc(C2=C(O)c3ncccc3C(C)(C)S2(=O)=O)c1Cl` [Compound I-6, N-[2,6-dichloro-3-(8-hydroxy-5,5-dimethyl-6,6-dioxo-thiopyrano[4,3-b]pyridin-7-yl)phenyl]-N-methyl-acetamide], for which the pest or weed control at 60 g/ha in the assay with Echinocloa crus-galli (0.060 kg/ha) amounted to 90%. The compound also gave a Herbicidal activity with Setaria viridis (0.060 kg/ha) of 90. In addition, the plant injury at 60 g/ha in the assay with Zea mays (0.060 kg/ha) was determined as 30%.

In the assay on Echinocloa crus-galli, `CC(=O)N(C)c1c(Cl)ccc(C2=C(OC(=O)C(C)(C)C)c3ncc(F)cc3C(C)(C)S2(=O)=O)c1Cl` [Compound I-13, [7-[3-[acetyl(methyl)amino]-2,4-dichloro-phenyl]-3-fluoro-5,5-dimethyl-6,6-dioxo-thiopyrano[4,3-b]pyridin-8-yl] 2,2-dimethylpropanoate] yielded a pest or weed control at 125 g/ha of 95%. The Herbicidal activity is on record as 85 in the assay with Setaria viridis (0.125 kg/ha) and 90 with Amaranthus retroflexus (0.125 kg/ha). The plant injury at 125 g/ha in the assay with Zea mays was found to be 15%.

Compound `O=C1CCCN1c1c(Cl)ccc(C2=C(O)c3ncccc3CS2(=O)=O)c1Cl` [Compound I-1, 1-[2,6-dichloro-3-(8-hydroxy-6,6-dioxo-5H-thiopyrano[4,3-b]pyridin-7-yl)phenyl]pyrrolidin-2-one] registered a pest or weed control at 250 g/ha in the assay with Echinocloa crus-galli of 100%. The Herbicidal activity with Chenopodium album (0.25 kg/ha) and with Amaranthus retroflexus (0.25 kg/ha) was 100 each time. For the same compound, in the assay on Zea mays, the plant injury at 250 g/ha is 0%.

`CC(=O)N(C)c1c(Cl)ccc(C2=C(O)c3ncc(F)cc3C(C)(C)S2(=O)=O)c1Cl` [Compound I-14, N-[2,6-dichloro-3-(3-fluoro-8-hydroxy-5,5-dimethyl-6,6-dioxo-thiopyrano[4,3-b]pyridin-7-yl)phenyl]-N-methyl-acetamide] returned a pest or weed control at 125 g/ha in the assay on Echinocloa crus-galli of 98%. The Herbicidal activity turned out to be 100 with Setaria viridis (0.125 kg/ha) and 98 in the assay with Amaranthus retroflexus (0.125 kg/ha). This compound registered a plant injury at 125 g/ha in the assay on Zea mays of 30%.

In the assay with Echinocloa crus-galli, `CC(=O)N(C)c1c(Cl)ccc(C2=C(OC(=O)C(C)(C)C)c3ncccc3C(C)(C)S2(=O)=O)c1Cl` [Compound I-8, [7-[3-[acetyl(methyl)amino]-2,4-dichloro-phenyl]-5,5-dimethyl-6,6-dioxo-thiopyrano[4,3-b]pyridin-8-yl] 2,2-dimethylpropanoate] came in with a pest or weed control at 125 g/ha of 98%. The Herbicidal activity with Chenopodium album (0.125 kg/ha) came to 100; in the assay on Amaranthus retroflexus (0.125 kg/ha), 98. In addition, the plant injury at 125 g/ha in the assay on Zea mays was determined as 30%.
